In general, IC50 refers to the concentration at which inhibition is half-maximal. Read a low IC50 as inhibition by little substance.

Structures are written as SMILES.

T1 sequence (P06870 25-262): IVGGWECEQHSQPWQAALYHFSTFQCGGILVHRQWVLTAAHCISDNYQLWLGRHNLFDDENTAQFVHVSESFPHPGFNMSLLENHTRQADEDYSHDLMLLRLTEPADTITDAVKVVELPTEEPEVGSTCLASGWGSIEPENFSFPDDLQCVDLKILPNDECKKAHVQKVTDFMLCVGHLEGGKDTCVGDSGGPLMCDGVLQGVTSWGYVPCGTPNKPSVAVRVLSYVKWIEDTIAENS

The experiment addresses T1, Human KLK1 (Homo sapiens, UniProt P06870).
T1 construct: purchased Callbiochem (Calbiochem)
Put plainly: Determination of the IC50 for KLK1 (fluorogenic substrate H-DVal-Leu-Arg-AFC). The following applies: 37° C. The experiment is classed as biochemical. The method, then:
Determination of the IC50 for KLK1
KLK1 inhibitory activity in vitro was determined using standard published methods (see e.g. Johansen et al., Int. J. Tiss. Reac. 1986, 8, 185; Shori et al., Biochem. Pharmacol., 1992, 43, 1209; Stürzebecher et al., Biol. Chem. Hoppe-Seyler, 1992, 373, 1025). Human KLK1 (Callbiochem) was incubated at 37° C. with the fluorogenic substrate H-DVal-Leu-Arg-AFC and various concentrations of the test compound. Residual enzyme activity (initial rate of reaction) was determined by measuring the change in optical absorbance at 410 nm and the IC50 value for the test compound was determined.
As to `CN1C[C@H](O)C[C@@H]1C(=O)N[C@@H](Cc1ccc(F)c(F)c1)C(=O)NCc1ccc(N)nc1` [Example 148, (2R,4R)-4-Hydroxy-1-methyl-pyrrolidine-2-carboxylic acid [(S)-1-[(6-amino-pyridin-3-ylmethyl)-carbamoyl]-2-(3,4-difluoro-phenyl)-ethyl]-amide], half-maximal inhibition (IC50) required 55.7 nM.
Compound `CN1CCC[C@@H]1C(=O)N(C)[C@@H](Cc1ccccc1)C(=O)NCc1ccc(N)nc1` [Example 225, (R)-1-Methyl-pyrrolidine-2-carboxylic acid {(S)-1-[(6-amino-pyridin-3-ylmethyl)-carbamoyl]-2-phenyl-ethyl}-methyl-amide] registered an IC50 of 51.1 nM.
The compound `CC1CCCC(C)N1CC(=O)N[C@@H](Cc1ccc(Cl)cc1)C(=O)NCc1ccc(N)nc1` (stereo partly drawn) [Example 426, (S)—N-(6-Amino-pyridin-3-ylmethyl)-3-(4-chloro-phenyl)-2-[2-(2,6-dimethyl-piperidin-1-yl)-acetylamino]-propionamide] gave an IC50 of 2.7 nM.
The compound `Nc1ccc(CNC(=O)[C@H](Cc2ccc(F)c(F)c2)NC(=O)[C@H]2CCCN2Cc2cccc(Cl)c2)cn1` [Example 143, (R)-1-(3-Chloro-benzyl)-pyrrolidine-2-carboxylic acid [(S)-1-[(6-amino-pyridin-3-ylmethyl)-carbamoyl]-2-(3,4-difluoro-phenyl)-ethyl]-amide] had an IC50 of 21 nM.
`Nc1ccc(CNC(=O)[C@H](Cc2ccc(Cl)c(Cl)c2)NC(=O)[C@H](N)CCc2ccccc2)cn1` [Example 67, (R)-2-Amino-N-[(S)-1-[(6-amino-pyridin-3-ylmethyl)-carbamoyl]-2-(3,4-dichloro-phenyl)-ethyl]-4-phenyl-butyramide] showed an IC50 of 3.1 nM.
Consider `Nc1ccc(CNC(=O)[C@H](Cc2ccc(F)cc2)NC(=O)[C@H]2CCCCN2)cn1` [Example 73, (R)-Piperidine-2-carboxylic acid [(S)-1-[(6-amino-pyridin-3-ylmethyl)-carbamoyl]-2-(4-fluoro-phenyl)-ethyl]-amide], for which half-maximal inhibition (IC50) was put at 1.1 nM.
`Cc1cc(C)c(C(=O)N[C@@H](Cc2ccccc2Cl)C(=O)NCc2ccc(N)nc2)[nH]1` [Example 239, 3,5-Dimethyl-1H-pyrrole-2-carboxylic acid [(S)-1-[(6-amino-pyridin-3-ylmethyl)-carbamoyl]-2-(2-chloro-phenyl)-ethyl]-amide] returned an IC50 of 6.5 nM.
`CN1CCC[C@@H]1C(=O)N[C@@H](Cc1ccc(F)cc1)C(=O)NCc1ccc(N)nc1` [Example 98, (R)-1-Methyl-pyrrolidine-2-carboxylic acid [(S)-1-[(6-amino-pyridin-3-ylmethyl)-carbamoyl]-2-(4-fluoro-phenyl)-ethyl]-amide] returned an IC50 of 1.3 nM.
Then `Cc1nc(N)ccc1CNC(=O)[C@@H](Cc1ccc(Cl)c(Cl)c1)NC(=O)[C@@H](N)c1ccccc1` [Example 197, (R)—N-(6-Amino-2-methyl-pyridin-3-ylmethyl)-2-((S)-2-amino-2-phenyl-acetylamino)-3-(3,4-dichloro-phenyl)-propionamide], with 84.6 nM; and `CN1CCC[C@@H]1C(=O)N[C@@H](Cc1csc2ccccc12)C(=O)NCc1ccc(N)nc1` [Example 95, (R)-1-Methyl-pyrrolidine-2-carboxylic acid {(S)-1-[(6-amino-pyridin-3-ylmethyl)-carbamoyl]-2-benzo[b]thiophen-3-yl-ethyl}-amide], with 1.8 nM; and `CCC(C)[C@@H](NC)C(=O)N[C@@H](Cc1ccc(F)c(F)c1)C(=O)NCc1ccc(N)nc1` (stereo partly drawn) [Example 43, (R)-3-Methyl-2-methylamino-pentanoic acid [(S)-1-[(6-amino-pyridin-3-ylmethyl)-carbamoyl]-2-(3,4-difluoro-phenyl)-ethyl]-amide], with 2.9 nM.
For the compound `CC(C1CCCCC1)[C@@H](NC(=O)[C@H](C)N(C)C(C)C)C(=O)NCc1ccc(N)nc1` (stereo partly drawn) [Example 436, (R)—N-(6-Amino-pyridin-3-ylmethyl)-3-cyclohexyl-2-[(S)-2-(isopropyl-methyl-amino)-propionylamino]-butyramide], the IC50 is 3.6 nM. This IC50 and that of the compound before are within 1.5-fold of each other.
`CCC(C)[C@@H](N)C(=O)N[C@@H](Cc1ccc(Cl)c(Cl)c1)C(=O)NCc1ccc(N)nc1` (stereo partly drawn) [Example 35, (R)-2-Amino-3-methyl-pentanoic acid [(S)-1-[(6-amino-pyridin-3-ylmethyl)-carbamoyl]-2-(3,4-dichloro-phenyl)-ethyl]-amide] came in with an IC50 of 0.47 nM.
The compound `Nc1ccc(CNC(=O)[C@H](Cc2cc(F)cc(F)c2)NC(=O)c2cc3ccccc3[nH]2)cn1` [Example 323, 1H-Indole-2-carboxylic acid [(S)-1-[(6-amino-pyridin-3-ylmethyl)-carbamoyl]-2-(3,5-difluoro-phenyl)-ethyl]-amide] showed an IC50 of 48.1 nM. Against the preceding compound, the IC50 is about 100-fold higher.
In the case of `Cc1nc(N)ccc1CNC(=O)[C@H](Cc1ccc(Cl)c(Cl)c1)NC(=O)[C@H](N)C(C)(C)C` [Example 199, (R)-2-Amino-N-[(S)-1-[(6-amino-2-methyl-pyridin-3-ylmethyl)-carbamoyl]-2-(3,4-dichloro-phenyl)-ethyl]-3,3-dimethyl-butyramide], the IC50 came to 1.4 nM. Compared with the last compound, the IC50 is about 34-fold lower.
With `CC(C(=O)N[C@@H](Cc1cccc(C(F)(F)F)c1)C(=O)NCc1ccc(N)nc1)N1CCCCC1` (stereo partly drawn) [Example 419, N-[(S)-1-[(6-Amino-pyridin-3-ylmethyl)-carbamoyl]-2-(3-trifluoromethyl-phenyl)-ethyl]-2-piperidin-1-yl-propionamide] the figure was 16.3 nM; with `CCN(C)[C@@H](C)C(=O)N[C@@H](Cc1cccc(C(F)(F)F)c1)C(=O)NCc1ccc(N)nc1` [Example 416, (S)—N-[(S)-1-[(6-Amino-pyridin-3-ylmethyl)-carbamoyl]-2-(3-trifluoromethyl-phenyl)-ethyl]-2-(ethyl-methyl-amino)-propionamide], 6.2 nM; with `Nc1ccc(CNC(=O)[C@H](Cc2cccc3ccccc23)NC(=O)c2ncc[nH]2)cn1` [Example 289, 1H-Imidazole-2-carboxylic acid {(S)-1-[(6-amino-pyridin-3-ylmethyl)-carbamoyl]-2-naphthalen-1-yl-ethyl}-amide], 30.5 nM.
`Nc1ccc(CNC(=O)[C@H](Cc2cccc(C(F)(F)F)c2)NC(=O)[C@H](N)Cc2ccc(Cl)cc2)cn1` [Example 70, (R)-2-Amino-N-[(S)-1-[(6-amino-pyridin-3-ylmethyl)-carbamoyl]-2-(3-trifluoromethyl-phenyl)-ethyl]-3-(4-chloro-phenyl)-propionamide] had an IC50 of 1.1 nM.
Regarding `CC(C)N(C)CC(=O)N[C@@H](Cc1ccc(Cl)c(Cl)c1)C(=O)NCc1ccc(N)nc1` [Example 150, (S)—N-(6-Amino-pyridin-3-ylmethyl)-3-(3,4-dichloro-phenyl)-2-[2-(isopropyl-methyl-amino)-acetylamino]-propionamide], inhibition was half-maximal at 12 nM (IC50). This IC50 lies about 11-fold higher than the previous one.
`CC(C)N(C)[C@H](C)C(=O)N[C@@H](Cc1ccc(F)c(F)c1)C(=O)NCc1ccc(N)nc1` [Example 175, (R)—N-[(S)-1-[(6-Amino-pyridin-3-ylmethyl)-carbamoyl]-2-(3,4-difluoro-phenyl)-ethyl]-2-(isopropyl-methyl-amino)-propionamide] returned an IC50 of 2 nM. This IC50 is about 6-fold lower than that of the compound before.
With `Cc1nc(N)ccc1CNC(=O)[C@H](Cc1ccc(Cl)c(Cl)c1)NC(=O)[C@H](N)Cc1cccnc1` [Example 196, (R)-2-Amino-N-[(S)-1-[(6-amino-2-methyl-pyridin-3-ylmethyl)-carbamoyl]-2-(3,4-dichloro-phenyl)-ethyl]-3-pyridin-3-yl-propionamide] the figure was 23.2 nM.

Source of the values: patent publication US20100076015A1, “Aminopyridine Derivatives” (VANTIA LIMITED, priority 2008, published 2010).
